# Assay results from patent US6447775B1, “Modulators of expression and function of LRP in Alzheimer's disease” (The General Hospital Corporation, priority 1995, dated 2002).
# Entries after “also recorded” stand apart in the source; their conditions may differ.
# Assays:
# [1] = test system: LRP-expressing (MEF) cells; assay: Cellular internalization and degradation of 125I-labeled ligands by LRP-expressing mouse fibroblasts; type: cell-based
# Procedure: (§1) Wells containing 2×10^5 LRP-expressing (MEF) or LRP-deficient (PEA13) cells were incubated with various concentrations (0.37-10 nM) of ^125I-APPs770 (Panels A and B) or 125I-APPs695 (Panels C and D) for 10 h at 37° C. in the absence of competitor (●) or in the presence of either 1 μM RAP (∘), or 100 μg/ml heparin (□). The cellular degradation of ^125I-labeled APPs770 by LRP-expressing MEF cells is shown in panel A and by LRP-deficient PEA13 cells in panel B. The cellular degradation of ^125I-APPs695 by LRP-expressing cells is depicted in panel C and by LRP-deficient cells in panel D. Plotted values represent means of duplicate determinations. Inset to panel B, autoradiogram of ^125I-labeled APPs770 (lane 1) and APPs695 (lane 2). The migration position of molecular mass standards are indicated on the right in kDa.
# Wells containing 2×10^5 LRP-expressing (●) or LRP-deficient (∘) mouse fibroblasts were incubated with ^125I-LDL (8 μg/ml) or ^125I-α2M* (1.4 nM) for selected time intervals. […] Shown are the amounts of ^125I-LDL internalized (panel A) and degraded (panel B), ^125I-α2M* internalized (panel C) and degraded (panel D). The plotted values represent means of duplicate determinations.
# Mouse fibroblasts (2×10^5 cells per well) were incubated for selected times with ^125I-APPs770 (1 nM) in the absence of competitor (●) or in the presence of either 1 μM RAP (∘), or 100 μg/ml heparin (□). The amount of radioactivity internalized and degraded was determined at the indicated time intervals. […] The plotted values are means of duplicate determinations.
# Mouse fibroblasts (2×10^5 cells/well) were incubated for 18 h at 37° C. with ^125I-APPs770 (10 nM) in the absence of competitor or in the presence of either heparin (100 μg/ml), chloroquine (0.1 mM), RAP (1 μM), affinity purified anti-LRP IgG (100 μg/ml), or control IgG against the cytoplasmic domain of LRP (100 μg/ml). Panels show the amount of ^125I-APPs770 degraded by mouse fibroblasts expressing LRP (A) or ones deficient in LRP expression (B). The data shown are means of duplicate determinations±S. E.
# Wells containing 2×10^5 LRP-expressing (MEF) or LRP-deficient (PEA13) cells were incubated with ^125I-APPs770 (5 nM) or ^125I-APPs770:FIXa (3 nM) for 18 h at 37° C. in the absence of competitor or in the presence of 1 μM RAP. The amount of ^125I-labeled APPs770 or ^125I-APPs770:Factor IXa degraded by LRP-expressing MEF cells is shown in panel A and that by LRP-deficient PEA13 cells in panel B. Plotted values represent means of duplicate determinations.
# Mouse fibroblasts (2×10^5) were incubated for 18 h at 37° C. with ^125I-APP/PN-2 (8.8 nM) in the absence of competitor or in the presence of either RAP (1 μM)), 10 μg/ml apoE3/βVLDL, 10 μg/ml apoE4/βVLDL, or 10 μg/ml βVLDL. […]
# [2] = test system: LRP-deficient (PEA13) cells; assay: Cellular internalization and degradation of 125I-labeled ligands by LRP-deficient mouse fibroblasts; type: cell-based
# Procedure: as §1
# Wells containing 2×10^5 LRP-expressing (●) or LRP-deficient (∘) mouse fibroblasts were incubated with ^125I-LDL (8 μg/ml) or ^125I-α2M* (1.4 nM) for selected time intervals. […]
# Mouse fibroblasts (2×10^5 cells per well) were incubated for selected times with ^125I-APPs770 (1 nM) in the absence of competitor (●) or in the presence of either 1 μM RAP (∘), or 100 μg/ml heparin (□). The amount of radioactivity internalized and degraded was determined at the indicated time intervals. […]
# [3] = target: LRP (Homo sapiens, UniProt Q07954); assay: ELISA of LRP binding to APPs770 captured on zinc-coated wells; details: LRP 25 nM, RAP 0.2-450 nM
# Procedure: In panel A, zinc-coated wells (∘) or zinc-coated wells incubated with APPs770 (●) were incubated with the APPs770 monoclonal antibody 7H5. In panel B, increasing concentrations of LRP (0.14-300 nM) were incubated for 18 h at 4° C. with zinc-coated wells (∘) or zinc-coated wells with captured APPs770 (●). Panel C, LRP (25 nM) was incubated with zinc-coated wells (∘) or zinc-coated wells with captured APPs770 (●) in the presence of increasing concentrations of RAP (0.2-450 nM). Bound receptor was detected with the monoclonal LRP antibody 8G1. In the absence of LRP there was no binding of 8G1 IgG to APPs770-coated wells. Plotted values represent means of duplicate determinations.
# LRP, sequence (Q07954 20-3943 limits assumed): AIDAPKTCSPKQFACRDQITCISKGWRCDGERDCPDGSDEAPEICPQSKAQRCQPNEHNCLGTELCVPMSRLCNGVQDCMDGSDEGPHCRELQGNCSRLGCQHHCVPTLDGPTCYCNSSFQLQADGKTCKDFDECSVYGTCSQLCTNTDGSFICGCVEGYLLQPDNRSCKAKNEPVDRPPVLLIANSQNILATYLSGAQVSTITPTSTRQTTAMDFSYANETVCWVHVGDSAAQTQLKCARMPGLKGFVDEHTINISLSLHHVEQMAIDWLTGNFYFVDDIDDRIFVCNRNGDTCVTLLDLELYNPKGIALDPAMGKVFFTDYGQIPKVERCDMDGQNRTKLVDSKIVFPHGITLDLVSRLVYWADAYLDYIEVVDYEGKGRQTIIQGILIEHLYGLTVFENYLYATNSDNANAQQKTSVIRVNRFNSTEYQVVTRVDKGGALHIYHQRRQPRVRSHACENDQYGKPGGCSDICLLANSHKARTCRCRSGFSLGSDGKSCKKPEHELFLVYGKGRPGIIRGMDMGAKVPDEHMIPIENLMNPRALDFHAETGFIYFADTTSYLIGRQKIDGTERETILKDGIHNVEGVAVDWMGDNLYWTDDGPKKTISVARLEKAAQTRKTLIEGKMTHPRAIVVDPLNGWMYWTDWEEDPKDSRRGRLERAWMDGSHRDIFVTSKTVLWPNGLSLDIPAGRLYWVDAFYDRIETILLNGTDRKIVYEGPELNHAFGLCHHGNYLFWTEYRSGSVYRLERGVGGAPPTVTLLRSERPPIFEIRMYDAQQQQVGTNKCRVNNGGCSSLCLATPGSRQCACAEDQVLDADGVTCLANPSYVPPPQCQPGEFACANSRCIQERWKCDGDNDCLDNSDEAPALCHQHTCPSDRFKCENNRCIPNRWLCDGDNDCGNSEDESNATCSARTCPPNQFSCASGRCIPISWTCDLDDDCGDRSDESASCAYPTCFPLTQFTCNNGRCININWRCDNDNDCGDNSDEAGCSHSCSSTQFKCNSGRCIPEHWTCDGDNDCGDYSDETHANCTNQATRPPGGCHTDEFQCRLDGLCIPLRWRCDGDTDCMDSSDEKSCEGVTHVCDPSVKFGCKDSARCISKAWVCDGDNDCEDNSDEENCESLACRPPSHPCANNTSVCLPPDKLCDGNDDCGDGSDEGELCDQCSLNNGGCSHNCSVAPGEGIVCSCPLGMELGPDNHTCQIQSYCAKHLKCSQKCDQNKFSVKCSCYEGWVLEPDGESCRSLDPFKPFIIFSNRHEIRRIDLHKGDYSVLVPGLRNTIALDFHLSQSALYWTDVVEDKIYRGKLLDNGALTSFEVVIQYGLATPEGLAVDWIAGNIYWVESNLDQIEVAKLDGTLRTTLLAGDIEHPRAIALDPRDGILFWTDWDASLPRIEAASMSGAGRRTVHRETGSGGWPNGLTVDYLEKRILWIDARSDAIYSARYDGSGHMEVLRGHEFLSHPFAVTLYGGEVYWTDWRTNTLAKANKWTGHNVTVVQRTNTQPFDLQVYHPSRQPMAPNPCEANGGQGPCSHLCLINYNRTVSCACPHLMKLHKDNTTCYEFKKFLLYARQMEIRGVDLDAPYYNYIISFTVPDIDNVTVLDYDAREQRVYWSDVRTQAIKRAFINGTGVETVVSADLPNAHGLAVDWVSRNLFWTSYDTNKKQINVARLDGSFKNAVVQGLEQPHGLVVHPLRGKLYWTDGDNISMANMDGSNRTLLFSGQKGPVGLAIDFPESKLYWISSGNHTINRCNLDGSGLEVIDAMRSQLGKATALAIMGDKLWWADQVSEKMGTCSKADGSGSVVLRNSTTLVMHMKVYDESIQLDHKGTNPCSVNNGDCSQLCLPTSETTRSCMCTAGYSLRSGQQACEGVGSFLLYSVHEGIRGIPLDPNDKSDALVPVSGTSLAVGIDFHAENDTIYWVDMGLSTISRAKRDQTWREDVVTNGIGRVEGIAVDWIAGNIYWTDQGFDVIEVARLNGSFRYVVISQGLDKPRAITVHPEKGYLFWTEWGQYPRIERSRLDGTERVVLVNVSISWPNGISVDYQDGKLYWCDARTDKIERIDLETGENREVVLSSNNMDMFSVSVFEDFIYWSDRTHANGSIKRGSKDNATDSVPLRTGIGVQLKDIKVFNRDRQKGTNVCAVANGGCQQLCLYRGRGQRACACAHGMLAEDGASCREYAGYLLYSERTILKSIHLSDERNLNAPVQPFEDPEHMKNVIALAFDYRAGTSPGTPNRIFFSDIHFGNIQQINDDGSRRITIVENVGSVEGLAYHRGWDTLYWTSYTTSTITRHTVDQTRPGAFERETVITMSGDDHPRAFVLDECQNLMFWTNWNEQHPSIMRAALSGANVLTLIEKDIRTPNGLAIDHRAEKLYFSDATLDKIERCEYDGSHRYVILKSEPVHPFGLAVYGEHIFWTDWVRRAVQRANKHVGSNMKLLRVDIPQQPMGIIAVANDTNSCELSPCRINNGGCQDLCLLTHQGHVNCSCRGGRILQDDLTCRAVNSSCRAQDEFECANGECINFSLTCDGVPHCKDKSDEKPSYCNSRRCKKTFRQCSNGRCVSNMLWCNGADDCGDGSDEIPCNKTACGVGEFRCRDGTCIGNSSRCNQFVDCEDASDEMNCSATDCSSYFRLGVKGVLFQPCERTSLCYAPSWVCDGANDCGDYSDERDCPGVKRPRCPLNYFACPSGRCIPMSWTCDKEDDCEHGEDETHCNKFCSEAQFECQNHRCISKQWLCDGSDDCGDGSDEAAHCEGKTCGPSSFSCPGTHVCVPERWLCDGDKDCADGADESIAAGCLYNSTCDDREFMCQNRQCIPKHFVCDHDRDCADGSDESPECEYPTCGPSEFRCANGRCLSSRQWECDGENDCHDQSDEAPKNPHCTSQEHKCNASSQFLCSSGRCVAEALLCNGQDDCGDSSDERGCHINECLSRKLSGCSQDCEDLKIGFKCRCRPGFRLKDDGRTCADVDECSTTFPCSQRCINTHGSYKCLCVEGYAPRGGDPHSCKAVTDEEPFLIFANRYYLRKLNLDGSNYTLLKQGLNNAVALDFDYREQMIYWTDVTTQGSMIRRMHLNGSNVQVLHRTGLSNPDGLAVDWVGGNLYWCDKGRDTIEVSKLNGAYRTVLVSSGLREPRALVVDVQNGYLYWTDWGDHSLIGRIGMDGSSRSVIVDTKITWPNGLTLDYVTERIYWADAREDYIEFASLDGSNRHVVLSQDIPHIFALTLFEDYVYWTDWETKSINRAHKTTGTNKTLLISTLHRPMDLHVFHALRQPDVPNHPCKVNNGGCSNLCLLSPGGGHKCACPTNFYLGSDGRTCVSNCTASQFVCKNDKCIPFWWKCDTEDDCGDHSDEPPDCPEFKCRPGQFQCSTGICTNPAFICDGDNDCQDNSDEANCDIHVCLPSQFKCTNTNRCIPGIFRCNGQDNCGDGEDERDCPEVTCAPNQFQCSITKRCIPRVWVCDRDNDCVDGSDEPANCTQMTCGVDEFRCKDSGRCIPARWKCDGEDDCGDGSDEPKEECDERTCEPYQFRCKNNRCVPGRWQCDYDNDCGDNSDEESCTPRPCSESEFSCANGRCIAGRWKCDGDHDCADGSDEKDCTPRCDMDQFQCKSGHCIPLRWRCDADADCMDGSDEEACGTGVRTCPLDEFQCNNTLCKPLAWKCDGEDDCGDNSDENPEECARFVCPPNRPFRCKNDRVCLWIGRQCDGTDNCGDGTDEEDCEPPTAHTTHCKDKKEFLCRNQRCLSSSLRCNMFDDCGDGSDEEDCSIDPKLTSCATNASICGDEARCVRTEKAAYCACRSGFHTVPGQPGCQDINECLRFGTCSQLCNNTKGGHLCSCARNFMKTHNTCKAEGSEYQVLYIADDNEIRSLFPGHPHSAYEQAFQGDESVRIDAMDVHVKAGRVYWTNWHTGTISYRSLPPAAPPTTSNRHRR
# LRP, sequence (Q07954 3944-4544 partner limits assumed): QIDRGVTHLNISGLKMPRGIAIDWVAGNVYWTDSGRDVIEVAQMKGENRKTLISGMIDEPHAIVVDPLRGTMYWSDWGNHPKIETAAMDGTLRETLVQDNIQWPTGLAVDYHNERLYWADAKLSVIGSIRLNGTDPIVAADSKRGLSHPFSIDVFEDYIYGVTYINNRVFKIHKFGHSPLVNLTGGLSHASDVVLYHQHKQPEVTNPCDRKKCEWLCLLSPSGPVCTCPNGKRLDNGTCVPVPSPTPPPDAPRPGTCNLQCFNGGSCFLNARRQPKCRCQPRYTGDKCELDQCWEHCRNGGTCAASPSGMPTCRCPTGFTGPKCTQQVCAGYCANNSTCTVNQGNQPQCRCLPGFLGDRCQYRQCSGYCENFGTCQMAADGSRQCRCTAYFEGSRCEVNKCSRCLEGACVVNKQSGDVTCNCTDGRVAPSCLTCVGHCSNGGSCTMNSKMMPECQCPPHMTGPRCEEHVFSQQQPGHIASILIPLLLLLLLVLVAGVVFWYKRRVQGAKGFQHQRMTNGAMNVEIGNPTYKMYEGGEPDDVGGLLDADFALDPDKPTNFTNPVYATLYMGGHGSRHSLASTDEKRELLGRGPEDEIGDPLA
molecule,measurement,setting,value
heparin,inhibition of internalization of APP (125I-APPs770),"[1]; LRP-containing fibroblasts, 125I-APPs770 1 nM, heparin 100 μg/ml",inhibition of internalization of APP
same,inhibition of internalization of APP (125I-APPs770),"[2]; 125I-APPs770 1 nM, heparin 100 μg/ml",inhibition of internalization of APP
RAP: 39 kDa receptor associated protein that binds members of the LDL receptor family and blocks their ligand binding capacity,inhibition of 125I-APPs770 degradation by apoE isoforms/βVLDL or RAP,"[1]; 18 h at 37° C., 125I-APP/PN-2 8.8 nM, 10 μg/ml apoE/βVLDL or RAP 1 μM, F(4,15)=21.65, p=0.0001, p<0.05 vs βVLDL alone, RAP p<0.001",statistically significant
same,inhibition of catabolism/degradation of APP (125I-APPs770) by added competitor,"[1]; LRP-containing fibroblasts, RAP 1 μM, anti-LRP IgG 100 μg/ml",inhibition of catabolism of APP; also recorded: inhibition of degradation
same,inhibition of APP binding to LRP,[3],inhibition of APP binding
"α2-macroglobulin: 125I-labeled α2-macroglobulin, LRP ligand control (protein, UniProt P01023 24-1474, looked up, 125I label, 125I-labeled α2-macroglobulin, LRP ligand control) Alpha-2-macroglobulin: SVSGKPQYMVLVPSLLHTETTEKGCVLLSYLNETVTVSASLESVRGNRSLFTDLEAENDVLHCVAFAVPKSSSNEEVMFLTVQVKGPTQEFKKRTTVMVKNEDSLVFVQTDKSIYKPGQTVKFRVVSMDENFHPLNELIPLVYIQDPKGNRIAQWQSFQLEGGLKQFSFPLSSEPFQGSYKVVVQKKSGGRTEHPFTVEEFVLPKFEVQVTVPKIITILEEEMNVSVCGLYTYGKPVPGHVTVSICRKYSDASDCHGEDSQAFCEKFSGQLNSHGCFYQQVKTKVFQLKRKEYEMKLHTEAQIQEEGTVVELTGRQSSEITRTITKLSFVKVDSHFRQGIPFFGQVRLVDGKGVPIPNKVIFIRGNEANYYSNATTDEHGLVQFSINTTNVMGTSLTVRVNYKDRSPCYGYQWVSEEHEEAHHTAYLVFSPSKSFVHLEPMSHELPCGHTQTVQAHYILNGGTLLGLKKLSFYYLIMAKGGIVRTGTHGLLVKQEDMKGHFSISIPVKSDIAPVARLLIYAVLPTGDVIGDSAKYDVENCLANKVDLSFSPSQSLPASHAHLRVTAAPQSVCALRAVDQSVLLMKPDAELSASSVYNLLPEKDLTGFPGPLNDQDNEDCINRHNVYINGITYTPVSSTNEKDMYSFLEDMGLKAFTNSKIRKPKMCPQLQQYEMHGPEGLRVGFYESDVMGRGHARLVHVEEPHTETVRKYFPETWIWDLVVVNSAGVAEVGVTVPDTITEWKAGAFCLSEDAGLGISSTASLRAFQPFFVELTMPYSVIRGEAFTLKATVLNYLPKCIRVSVQLEASPAFLAVPVEKEQAPHCICANGRQTVSWAVTPKSLGNVNFTVSAEALESQELCGTEVPSVPEHGRKDTVIKPLLVEPEGLEKETTFNSLLCPSGGEVSEELSLKLPPNVVEESARASVSVLGDILGSAMQNTQNLLQMPYGCGEQNMVLFAPNIYVLDYLNETQQLTPEIKSKAIGYLNTGYQRQLNYKHYDGSYSTFGERYGRNQGNTWLTAFVLKTFAQARAYIFIDEAHITQALIWLSQRQKDNGCFRSSGSLLNNAIKGGVEDEVTLSAYITIALLEIPLTVTHPVVRNALFCLESAWKTAQEGDHGSHVYTKALLAYAFALAGNQDKRKEVLKSLNEEAVKKDNSVHWERPQKPKAPVGHFYEPQAPSAEVEMTSYVLLAYLTAQPAPTSEDLTSATNIVKWITKQQNAQGGFSSTQDTVVALHALSKYGAATFTRTGKAAQVTIQSSGTFSSKFQVDNNNRLLLQQVSLPELPGEYSMKVTGEGCVYLQTSLKYNILPEKEEFPFALGVQTLPQTCDEPKAHTSFQISLSVSYTGSRSASNMAIVDVKMVSGFIPLKPTVKMLERSNHVSRTEVSSNHVLIYLDKVSNQTLSLFFTVLQDVPVRDLKPAIVKVYDYYETDEFAIAEYNAPCSKDLGNA",catabolism (internalization and degradation) of 125I-labeled ligand by cells,"[1]; LRP-containing fibroblasts, 37° C., no competitor",internalization and degradation
same,catabolism (internalization and degradation) of 125I-labeled ligand by cells,"[2]; 37° C., no competitor",lack of both internalization and degradation
